# Measurements taken from ChEMBL document CHEMBL1212754, “SmQnr contributes to intrinsic resistance to quinolones in Stenotrophomonas maltophilia” (2010).
# What was measured:
# Format in all cases: functional
# [1] = system: Stenotrophomonas maltophilia; assay: Antibacterial activity against Stenotrophomonas maltophilia D457 containing chromosomally encoded Smqnr gene by epsilon test
# [2] = system: Stenotrophomonas maltophilia; assay: Antibacterial activity against Stenotrophomonas maltophilia MBS101 containing plasmid encoded Smqnr gene by epsilon test
# [3] = system: Stenotrophomonas maltophilia; assay: Antibacterial activity against Stenotrophomonas maltophilia MBS108 containing both chromosomally and plasmid encoded Smqnr gene by epsilon test
# [4] = system: Stenotrophomonas maltophilia; assay: Antibacterial activity against Stenotrophomonas maltophilia MBS109 containing chromosomally encoded Smqnr gene by epsilon test
# [5] = system: Stenotrophomonas maltophilia; assay: Antibacterial activity against Stenotrophomonas maltophilia MBS100 deficient in Smqnr gene by epsilon test
# [6] = system: Stenotrophomonas maltophilia; assay: Antibacterial activity against Stenotrophomonas maltophilia MBS82 deficient in Smqnr gene by epsilon test
MIC [1] [µg/mL],MIC [2] [µg/mL],MIC [3] [µg/mL],MIC [4] [µg/mL],MIC [5] [µg/mL],MIC [6] [µg/mL],Compound
0.25,0.75,0.75,0.25,0.125,0.125,COc1c(N2CCNC(C)C2)c(F)cc2c(=O)c(C(=O)O)cn(C3CC3)c12 (stereo not drawn) [GATIFLOXACIN]
0.5,1,1,0.5,0.25,0.25,C[C@H]1COc2c(N3CCN(C)CC3)c(F)cc3c(=O)c(C(=O)O)cn1c23.C[C@H]1COc2c(N3CCN(C)CC3)c(F)cc3c(=O)c(C(=O)O)cn1c23.O [LEVOFLOXACIN]
0.19,0.75,0.75,0.19,0.064,0.064,COc1c(N2C[C@@H]3CCCN[C@@H]3C2)c(F)cc2c(=O)c(C(=O)O)cn(C3CC3)c12 [MOXIFLOXACIN]
1,3,3,1,0.5,0.5,CC1COc2c(N3CCN(C)CC3)c(F)cc3c(=O)c(C(=O)O)cn1c23 (stereo not drawn) [OFLOXACIN]

Compound,MIC [1] [µg/mL],MIC [2] [µg/mL],MIC [3] [µg/mL],MIC [4] [µg/mL],MIC [5] [µg/mL],MIC [6] [µg/mL]
O=C(O)c1cn(C2CC2)c2cc(N3CCNCC3)c(F)cc2c1=O [CIPROFLOXACIN],0.75,2,2,0.75,,
